{
  "source": "patent US20230390315A1",
  "about": "“COMPOSITIONS AND METHODS FOR TREATING ISCHEMIC CONDITIONS” (The Regents of the University of California, priority 2020, published 2023)",
  "key": {"4T1 cells": {"system": "4T1 cells", "assay": "4T1 proliferation assay (MTS)", "assay_type": "cell-based, mouse"}, "[1]": {"system": "protein glycosylation in BCECs", "assay": "N-glycan, monosaccharide, sialic acid and O-glycan analysis of BCECs", "assay_type": "cell-based, bovine", "protocol": "As soon as BCECs reached about 80% confluency, they were washed twice with phosphate buffered saline (PBS, Sigma) and harvested by scraping. The cells were pelleted by centrifugation at 300 g for 3 mins and washed once with cold PBS. Cells were homogenized and total protein was measured. All subsequent analysis was based on known protein amount.\nN-linked glycans were removed from glycoprotein samples using PNGase-F kit (New England BioLabs, P0705S). Briefly, 300 μg of protein sample was reconstituted in 180 μl UltraPure water. 20 μl of 10× denaturing buffer was added and boiled using 100° C. water bath for 14 mins. Samples were cooled down to room temperature and centrifuged at 2700 g for 1 min. Subsequently, 50 μl 10×NP-40 was added and samples were kept at room temperature for 30 mins with vortexing at 5 min interval, followed by adding 25 μL of 10×reaction buffer and mixing thoroughly. 5 μl PNGaseF (2500 U) was then added to the samples and mixed gently. Samples were incubated at 37° C. for 16 hrs. Released N-glycans were purified using solid phase extraction method. Briefly, N-glycans were purified by passing the reaction mixture sequentially over pre-conditioned Sep-Pak C18 1 cc cartridge (Waters) and HyperSep PGC ([…]) cartridge (25 mg, 1 ml Thermo Scientific). The cartridge was washed with 4 ml of water and the PGC alone was washed with additional 1 ml of water. N-glycans bound to PGC were eluted using 30% acetonitrile containing 0.1% TFA in water. Finally, purified N-glycans were lyophilized and labeled with 2-AB. Briefly, samples were dissolved in 10 μl solution of 0.44 M 2-AB (2-Amino benzamide) in 35% acetic acid in DMSO containing 1M sodium cyanoborohydride. The samples were incubated at 65° C. for 2.5 hrs. The 2-AB labeled glycans were purified using GlycoClean S cartridge (GLYKO) following their glycan clean-up protocol. Excess reagent was removed from the samples using Glycoclean S-cartridge (Prozyme) and labelled glycans were dried using SpeedVac and stored at −20° C. Profiling of 2-AB labeled glycans was obtained using Dionex CarboPac PA1 (4×250 mm) anion exchange column along with a guard column (4×50 mm) at flow rate of 1 ml/min. Glycans were separated in 100 mM sodium hydroxide with a sodium acetate gradient of 0-250 mM in 0-75 minutes. The data was collected using the Dionex ICS-3000 HPLC system with Ultimate 3000 fluorescence detector (Dionex) set at λex 330 nm at tem 420 nm with sensitivity 7. The data was processed using Chromeleon software (Thermo Scientific).\nMonosaccharide composition analysis was done using HPAEC-PAD (Thermo-Dionex ICS3000) and nmole amount of each monosaccharide present in 25 μg of protein was calculated. Samples were hydrolyzed using 2 N trifluoroacetic acid (TFA) at 100° C. for 4 hrs. Followed by removal of acid using dry nitrogen flush. To ensure complete removal of acid, samples were co-evaporated twice with 100 μl of 50% isopropyl alcohol (IPA). Finally, the samples were dissolved in Milli-Q water and injected on HPAEC-PAD. Monosaccharide profile was done using Dionex CarboPac™ PA1 column (250 mm×4 mm; with 50 mm×4 mm guard column). […] All neutral and amino sugars were identified and quantified by comparing with authentic monosaccharide standard mixture consisting of L-fucose, D-galactosamine, D-glucosamine, D-galactose, D-glucose and D-mannose.\nMild acid hydrolysis was used to release sialic acid. […] Known amount of standard Neu5Ac was used to quantify amount of sialic acid in samples. […]"}, "skin wound": {"system": "skin wound", "assay": "Skin wound healing model (splinted wound)", "assay_type": "in vivo, mouse", "conditions": "day 4; topical 20 μg daily", "from_the_text": "The model has been previously described. Briefly, C57BL/6 female mice (8-10 weeks old) were obtained from Jackson labs (Sacramento, CA). A fresh, full-thickness punch wound (4 mm diameter) using a punch (Acu Punch, Acuderm inc. Ft. Lauderdale, FL) splinted with a sterile neoprene ring (6-mm outer diameter and 4-mm inner diameter), fastened with 5-6 sutures (4-0 nylon) under the influence of Isoflurane was created on the back of the animal in a Class II Biological Safety Cabinet. For all surgical procedures, sterile technique was followed. Buprenorphine was given subcutaneously prior to awakening from anesthesia for anticipated pain. Mice were monitored until fully awake and were housed individually to minimize damage/biting/fighting to the surgical site. […] Treatment agents were prepared in PBS, sterile-filtered and 25 μl solution was applied daily directly to a wound bed for the first 4-5 days under the influence of Isoflurane, followed by daily observation. Wound closure was monitored by regular imaging and the wound area was quantified using ImageJ (National Institutes of Health, Bethesda, MD, USA). […] Epithelial gap was measured histomorphometrically using AxioVision LE Rel.4.4 software. […] Small vessels stained positive for CD31 were counted microscopically on 10 fields (20×) taken around the wound."}},
  "data": [
    {"molecule": "N[C@H](C=O)[C@@H](O)[C@H](O)[C@H](O)CO", "note": "[ManN, 2-Amino-2-deoxy-D-mannose]", "values": [
      {"measurement": "growth of 4T1", "setting": "4T1 cells", "value": "did not promote growth"},
      {"measurement": "toxicity on 4T1 cells", "setting": "4T1 cells; at 5 mM", "value": "significant toxicity"},
      {"measurement": "fucose (8 hours), mannose (12 hours), galactose (24 hours) and Neu5Ac (8 and 24 hours) content vs untreated control", "setting": "[1]", "value": "significant decrease"},
      {"measurement": "incorporation of ManN in N-glycans", "setting": "[1]", "value": "No incorporation of ManN was detected"},
      {"measurement": "Man-5 and Man-7 content", "setting": "[1]; 40 uM ManN", "value": "significant early phase accumulation"},
      {"measurement": "Man-6, Man-8 and Man-9 in total oligomannose N-glycan content vs untreated control", "setting": "[1]; 40 uM ManN", "value": "significant time-dependent reduction"},
      {"measurement": "O-glycosylation", "setting": "[1]; 40 uM ManN, MALDI-Tof", "value": "overall decrease in O-glycosylation"},
      {"measurement": "average closure of the wound", "setting": "skin wound", "value": 75.6, "unit": "%"}
    ]}
  ]
}
